We go through five compounds from publication PMC11097163 (ACS Omega, 2024).

Values after ≈ are worked out from the molar mass of the structure shown. A value given as a limit tells only on which side of the number the result lay.

For series [1] the following is noted: standards: high / moderate / low aqueous solubility; cited from earlier work.
Series [2] addresses P-gp (Homo sapiens, UniProt P08183). The series can be described thus: P-gp inhibition, intracellular accumulation of Rh123 in LS180 cells. The series is classed as cell-based.
For series [3], the system named is P-gp. The series can be described thus: P-gp induction, intracellular accumulation of Rh123 in LS180 cells. Format: cell-based.
Series [4] is described as follows: Equilibrium solubility in biorelevant media, shake-flask method. The series is classed as physicochemical. As to conditions: water, 37 °C, thermodynamic from solid.
A further series is described as follows: pKa, UV-metric method. Format: physicochemical. As to conditions: Britton-Robinson buffer, pH 1.81.
A short description of series [5]: Chemical stability in SGF and SIF. Format: physicochemical. Particulars: 37 °C, 10 µM.
A short description of another series: GI permeability, PAMPA. Format: in vitro ADME. Particulars: pH 7.4.
Series [6] is described as follows: Plasma stability in rat plasma. As to conditions: 5 µM, 2 h, 37°C. Format: in vitro ADME.
The nature of series [7]: Plasma protein binding, rapid equilibrium dialysis. The series is classed as in vitro ADME. Particulars: rat, pH 7.4.
Series [8] in a line: RBC partitioning in rat blood and plasma. As to conditions: fresh whole blood and reference plasma. Format: in vitro ADME.
A short description of series [9]: Metabolic stability in liver microsomes. The series is classed as in vitro ADME, human, monkey, dog, rat, mouse. As to conditions: MLM, RLM, DLM, MkLM, HLM; 1 mg/mL protein, 5 µM, 30 min.
Another series has as its target T1, CYP2C8 (Homo sapiens, UniProt P10632).
T1 sequence (P10632 1-490): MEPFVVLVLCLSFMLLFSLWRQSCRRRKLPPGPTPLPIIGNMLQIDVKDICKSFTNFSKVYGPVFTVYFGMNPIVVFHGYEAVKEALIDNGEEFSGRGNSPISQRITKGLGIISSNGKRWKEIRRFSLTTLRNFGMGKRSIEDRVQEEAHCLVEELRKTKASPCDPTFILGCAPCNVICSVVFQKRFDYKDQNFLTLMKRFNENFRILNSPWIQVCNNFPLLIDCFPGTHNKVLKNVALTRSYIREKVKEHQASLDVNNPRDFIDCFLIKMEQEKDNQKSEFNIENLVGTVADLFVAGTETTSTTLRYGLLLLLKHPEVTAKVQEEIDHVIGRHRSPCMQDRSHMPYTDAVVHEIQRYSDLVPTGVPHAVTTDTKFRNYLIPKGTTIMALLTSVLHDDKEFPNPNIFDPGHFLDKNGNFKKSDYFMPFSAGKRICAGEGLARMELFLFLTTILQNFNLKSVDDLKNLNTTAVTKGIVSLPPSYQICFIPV
As to the kind of experiment: CYP inhibition in HLM, CYP2C8. The series is classed as biochemical. Particulars: IC50 (μM), amodiaquine N-deethylation.

The nature of series [10]: Pharmacokinetics and oral bioavailability after oral and IV administration. The series is classed as in vivo. Particulars: rat.
The nature of series [11]: Organ distribution after IV administration. Format: in vivo. As to conditions: rat, IV 10 mg/kg, 5 min after dosing.
The nature of series [12]: Intrabrain distribution after IV administration. The series is classed as in vivo. Particulars: rat, IV 10 mg/kg, 5 min after dosing.
In series [13] the test system is CYP2D6. The series can be described thus: Western blot of liver CYP2D6 protein expression. Particulars: rat liver, crocetin with donepezil compared to only donepezil. The series is classed as in vivo.
Another series deals with CYP3A4. As to the kind of experiment: Western blot of liver CYP3A4 protein expression. Format: in vivo. As to conditions: rat liver, crocetin with galantamine compared to only galantamine.
Another series has as its system Caco-2 barrier. Particulars: ref 50 (Lautenschlager et al.); cited from earlier work.
For series [14] the following is noted: systemic circulation after oral administration of crocin; cited from earlier work.
Series [15] addresses CYP2D6 (Homo sapiens, UniProt P10635). As to the kind of experiment: CYP inhibition in HLM, CYP2D6. Particulars: IC50 (μM), dextromethorphan O-demethylation.
Where [16] appears, read: female, Wistar, plasma, other: oral and intravenous.

P-gp (Homo sapiens, UniProt P08183), sequence (P08183 whole entry): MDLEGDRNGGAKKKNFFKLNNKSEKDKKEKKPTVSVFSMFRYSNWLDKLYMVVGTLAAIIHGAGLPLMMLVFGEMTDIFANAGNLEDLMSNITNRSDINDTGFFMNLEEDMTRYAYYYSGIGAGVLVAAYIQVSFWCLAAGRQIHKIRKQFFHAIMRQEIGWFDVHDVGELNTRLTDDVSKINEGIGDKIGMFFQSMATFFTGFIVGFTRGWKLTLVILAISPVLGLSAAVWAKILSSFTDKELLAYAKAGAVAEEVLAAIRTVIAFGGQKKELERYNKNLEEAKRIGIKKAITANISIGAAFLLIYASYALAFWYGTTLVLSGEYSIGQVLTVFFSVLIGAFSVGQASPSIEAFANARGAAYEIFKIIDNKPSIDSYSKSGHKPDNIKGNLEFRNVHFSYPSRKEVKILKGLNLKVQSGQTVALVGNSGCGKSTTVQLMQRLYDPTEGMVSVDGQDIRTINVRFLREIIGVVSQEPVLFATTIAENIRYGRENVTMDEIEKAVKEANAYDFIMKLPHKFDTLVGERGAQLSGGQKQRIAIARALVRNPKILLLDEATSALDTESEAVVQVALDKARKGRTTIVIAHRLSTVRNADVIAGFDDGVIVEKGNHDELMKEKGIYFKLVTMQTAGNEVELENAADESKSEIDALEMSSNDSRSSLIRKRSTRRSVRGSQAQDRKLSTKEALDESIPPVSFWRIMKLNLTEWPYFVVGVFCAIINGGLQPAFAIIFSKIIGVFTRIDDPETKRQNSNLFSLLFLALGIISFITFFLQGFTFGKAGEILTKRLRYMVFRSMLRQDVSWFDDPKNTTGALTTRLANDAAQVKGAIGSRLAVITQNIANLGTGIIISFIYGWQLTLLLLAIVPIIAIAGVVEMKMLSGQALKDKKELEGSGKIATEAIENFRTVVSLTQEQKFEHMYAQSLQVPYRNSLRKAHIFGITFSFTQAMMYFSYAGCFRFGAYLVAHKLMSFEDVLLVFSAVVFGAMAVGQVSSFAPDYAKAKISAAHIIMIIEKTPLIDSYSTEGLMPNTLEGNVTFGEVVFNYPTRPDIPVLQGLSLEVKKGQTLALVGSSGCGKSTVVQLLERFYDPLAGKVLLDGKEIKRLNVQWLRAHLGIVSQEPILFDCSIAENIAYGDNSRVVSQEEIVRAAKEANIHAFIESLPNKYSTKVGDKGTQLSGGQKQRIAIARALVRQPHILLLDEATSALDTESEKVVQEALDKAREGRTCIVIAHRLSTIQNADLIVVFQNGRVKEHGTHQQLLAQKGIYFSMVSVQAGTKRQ
CYP2D6 (Homo sapiens, UniProt P10635), sequence (P10635 whole entry): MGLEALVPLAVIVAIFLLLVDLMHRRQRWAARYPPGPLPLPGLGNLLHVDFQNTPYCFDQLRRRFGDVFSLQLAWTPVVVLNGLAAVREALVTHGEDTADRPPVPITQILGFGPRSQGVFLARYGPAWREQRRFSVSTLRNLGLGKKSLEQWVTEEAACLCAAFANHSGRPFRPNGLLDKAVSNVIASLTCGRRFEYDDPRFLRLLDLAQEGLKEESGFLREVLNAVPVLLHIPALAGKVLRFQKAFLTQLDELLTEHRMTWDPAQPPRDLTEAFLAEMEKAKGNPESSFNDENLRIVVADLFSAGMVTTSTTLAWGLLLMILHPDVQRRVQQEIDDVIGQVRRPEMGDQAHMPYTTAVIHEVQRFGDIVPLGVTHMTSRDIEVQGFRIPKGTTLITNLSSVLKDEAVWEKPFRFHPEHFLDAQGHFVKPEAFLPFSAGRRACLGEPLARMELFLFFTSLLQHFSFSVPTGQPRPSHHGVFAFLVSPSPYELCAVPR

As for `CCCC1O[C@@H]2C[C@H]3[C@@H]4CCC5=CC(=O)C=C[C@]5(C)[C@H]4[C@@H](O)C[C@]3(C)[C@]2(C(=O)CO)O1` (stereo partly drawn) [budesonide], in [1], the “aqueous solubility (category of the standard)” value is 10 to 100 µg/mL.
`O[C@@H](COc1cccc2ncccc12)CN1CCN([C@@H]2c3ccccc3[C@@H]3[C@H](c4ccccc42)C3(F)F)CC1` [zosuquidar, reference compound]: the “P-gp inhibition (increase in intracellular accumulation of Rh123)” value on P-gp [2] (standard, 10 µM) is given as “significant inhibition of P-gp”.
As to `CO[C@H]1/C=C/O[C@@]2(C)Oc3c(C)c(O)c4c(O)c(c(/C=N/N5CCN(C)CC5)c(O)c4c3C2=O)NC(=O)/C(C)=C\C=C\[C@H](C)[C@H](O)[C@@H](C)[C@@H](O)[C@@H](C)[C@H](OC(C)=O)[C@@H]1C` [rifampicin, reference compound], in the series with P-gp [3] (standard, 10 µM), the “P-gp induction (decrease in intracellular accumulation of Rh123)” value is “significant induction of P-gp”.
As to `COc1ccc(CCN2CCC(Nc3nc4ccccc4n3Cc3ccc(F)cc3)CC2)cc1` [astemizole], the “aqueous solubility (category of the standard)” value in series [1] was < 10 µg/mL.
`CC(/C=C/C=C(\C)C(=O)O)=C\C=C\C=C(C)\C=C\C=C(/C)C(=O)O` [crocetin]: the solubility at 1 h in series [4] was 0.6 µg/mL (≈ 1.83 µM). This compound also had a pKa in “pKa, UV-metric method” of 5.35. Further, the “intact (chemical stability)” value in [5] (SGF (pH 1.2), 2 h) worked out at 72%. The “intact (chemical stability)” value in series [5] (SIF (pH 6.8), 4 h) was 68%. This compound also had an apparent permeability (Papp) at 5 h, 5 μM in “GI permeability, PAMPA” of 3.89 ×10⁻⁶ cm/s. For the same compound, the P-gp induction in the series on P-gp [3] (Rh123, 25–50 μM) is given as 22–24%. Moreover, at P-gp [2] (Rh123, 1 to 50 μM), the P-gp inhibitory activity result is given as “no marked P-gp inhibitory activity”. In series [6], the degradation in plasma was < 5%. This compound had a fraction unbound at 4 h, 5 µM in series [7] of 0.03. In [8], the blood plasma ratio at 0 min, 1000 nM was 0.36 ± 0.01 and the blood plasma ratio at 60 min, 1000 nM is 0.39 ± 0.04. In addition, the “remaining intact in liver microsomes” value in [9] was > 83%. At CYP2C8, this compound displayed an IC50 of 35.3 µM. In series [10] (setting [16]), the clearance was ≤ 16.7 mL/min/kg and the half-life was > 2 h. Moreover, in series [10] (oral 20 mg/kg), the maximum plasma concentration stood at 23 µM. Besides, the “order of concentrations in organs” value in series [11] is recorded as “liver > lungs > heart > kidney > spleen > brain”. Also, the “order of concentrations in brain parts” value in [12] was “cortex > cerebellum > hippocampus”. Moreover, the “CYP2D6 protein expression (down-regulation)” value with CYP2D6 [13] is on record as 0.73 fold. Also, the “CYP3A4 protein expression (down-regulation)” value with CYP3A4 was determined as 0.61 fold. The apparent permeability (Papp) in the series with Caco-2 barrier is given as 2.6 ± 0.6 × 10^–5 cm/s. In addition, the “exposure of crocetin relative to crocin” value in series [14] was 56–81 fold. Also, half-maximal inhibition at CYP2D6 [15] (IC50) was put at 20.4 µM.
